Data published in US11629156B2, “7-phenylethylamino-4H-pyrimido[4,5-d][1,3]oxazin-2-one compounds as mutant IDH1 and IDH2 inhibitors” (Eli Lilly and Company, priority 2016, dated 2023).

tested on: wild-type IDH1 (αKG) in HT1080 cells; assay: HT1080 cell assay, intracellular αKG; format: cell-based; details: highest concentration tested shown if curve did not reach 50%

**Q.** How did the IC50 turn out when `C=CC(=O)N1CCN(C(CC(C)C)c2ccc([C@H](C)Nc3ncc4c(n3)N(CC)C(=O)OC4)cc2)CC1` (single isomer, unassigned) [Example 7] was run?
**A.** Its IC50 is over 0.2 µM.

**Q.** For `C=CC(=O)N1CCN(C(CCOC)c2ccc([C@H](C)Nc3ncc4c(n3)N(CC)C(=O)OC4)cc2)CC1` (single isomer, unassigned) [Example 13], which IC50 is on record?
**A.** Its IC50 is over 20 µM.

**Q.** How did the IC50 turn out when `C=CC(=O)N1CCN(C(CC(C)C)c2ccc([C@H](C)Nc3ncc4c(n3)N(CC)C(=O)OC4)cc2)CC1` (single isomer, unassigned) [Example 8] was run?
**A.** Its IC50 is over 0.2 µM.

**Q.** With `C=CC(=O)N1CCN(C(CC2CC2)c2ccc([C@H](C)Nc3cc4c(cn3)COC(=O)N4C)cc2)CC1` (single isomer, unassigned) [Example 9] as the molecule, how does the IC50 read?
**A.** Its IC50 is over 20 µM.

**Q.** `C=CC(=O)N1CCN(C(CCOC)c2ccc([C@H](C)Nc3ncc4c(n3)N(CC)C(=O)OC4)cc2)CC1` (single isomer, unassigned) [Example 14] was tested. Which IC50 did it give?
**A.** The IC50 was over 20 µM.

**Q.** For `C=CC(=O)N1CCN(C(CC)c2ccc([C@H](C)Nc3ncc4c(n3)N(CC)C(=O)OC4)cc2)CC1` (single isomer, unassigned) [Example 12], which IC50 is on record?
**A.** Its IC50 is over 20 µM.

**Q.** With `C=CC(=O)N1CCN(C(CC2CC2)c2ccc([C@H](C)Nc3ncc4c(n3)N(C)C(=O)OC4)cc2)CC1` (single isomer, unassigned) [Example 4] as the molecule, how does the IC50 read?
**A.** Its IC50 is over 0.2 µM.

**Q.** With `C=CC(=O)N1CCN(C(CC2CC2)c2ccc([C@H](C)Nc3ncc4c(n3)N(C)C(=O)OC4)cc2)CC1` (single isomer, unassigned) [Example 3] as the molecule, how does the IC50 read?
**A.** The IC50 was over 0.2 µM.

**Q.** With `C=CC(=O)N1CCN(C(CC)c2ccc([C@H](C)Nc3ncc4c(n3)N(CC)C(=O)OC4)cc2)CC1` (single isomer, unassigned) [Example 11] as the molecule, how does the IC50 read?
**A.** Its IC50 is over 20 µM.

**Q.** With `C=CC(=O)N1CCN(C(CC2CC2)c2ccc([C@H](C)Nc3cc4c(cn3)COC(=O)N4C)cc2)CC1` (single isomer, unassigned) [Example 10] as the molecule, how does the IC50 read?
**A.** The IC50 was over 20 µM.
